The values below come from patent publication US20080287396A1, “Phosphonated Fluoroquinolones, Antibacterial Analogs Thereof, and Methods for the Prevention and Treatment of Bone and Joint Infections” (TARGANTA THERAPEUTICA INC., priority 2005, published 2008).

Each structure is given as a SMILES string.

The nature of series [1]: Regenerated moxifloxacin in infected and uninfected rat tibiae. Format: in vivo. To be noted: 52 IV 15.8 or 31.6 mg/kg one day after surgery; tibiae one and six days after treatment. On the procedure: Rats were infected as in Example 7, and treated IV with either 15.8 or 31.6 mg/kg of body weight of prodrug 52 one day after surgery. One day and six days following the treatment, the tibiae were collected as described previously. The levels of regenerated moxifloxacin 3 were determined as follows.
The experimentally obtained whole tibia was ground to a powder which was suspended in 5% formic acid in methanol (500 mg/1.6 ml) to extract the released moxifloxacin 3. The mixture was vortexed for 10 minutes and centrifuged for 20 minutes at 1250 g.
Standards (from 5 to 1000 ng), QCs (25 and 250 ng) and blanks were prepared (in duplicate) as follows: to blank tibia powder (50 mg, not dried) was added the 5% formic acid solution in methanol (160 μl) and the spiking solution of moxifloxacin 3 in water (10 μl). The mixtures were vortexed for 10 minutes and centrifuged for 10 minutes at 2500 g. The supernatant was transferred into another vial, spiked with the internal standard, vortexed and evaporated to dryness. In each case, the resulting dried residues (samples, standards, QCs and blanks) were reconstituted in 200 μl of water, vortexed for 15 min and centrifuged for 15 min at 10 000 g. The solution (20 μl) was injected into the LC/MS. The LC/MS method is as described in Example 6.

The nature of series [2]: Bone powder binding, LC/MS detection. The note with it: 100 μM compound, Tris-HCl pH 7, 0.15M NaCl, ground rat tibia bone, 10 min. On the procedure: The ability of the example molecules to bind to bone powder was established in two parallel fashions, using either LC/MS or fluorometric detection. For LC/MS detection, a stock solution (5 mM) of the compound to be tested was added to 0.1M Tris-HCl buffer pH 7, 0.15M NaCl to reach a final concentration of 100 μM. Triplicate samples (1 mL) of the compound solutions were intensively shaken for 10 min with or without 25 mg of fresh or 20 mg of vacuum dried ground rat tibia bone. The samples were then centrifuged for 15 min at 10 000 g. The presence of unbound compound was measured by injection of 30 μL of each of the supernatants into an Agilent 1100™ LC/UV system. For fluorometric detection, an individual compound was dissolved in PBS or water (compound 52) and resuspended at a concentration of 1 mg/ml in a slurry of bone meal powder (Now Foods, Bloomingdale, Ill., USA) in PBS at 10 mg/ml. The suspension of drug/prodrug in bone meal powder was incubated at 37° C. for 1 h to allow for binding, and centrifuged at 13 000 rpm for 2 min, before recovering the supernatant. The bone meal powder pellet was then washed three times with 1 ml of PBS. All supernatants were saved and assessed for fluoroquinolone content by fluorescence measurements at excitation/emission wavelengths of 280/465 nm. The amount of fluoroquinolone was determined from standard curves generated for each experiment. Amount of drug/prodrug bound to bone powder was deduced from the difference between the input amount (typically 1 mg) and the amount recovered in the supernatants after binding. In all binding experiments, >99% of input drug was recovered in the supernatant for the parent drugs.

The nature of series [3]: Levels of prodrug 52 in rat plasma in vivo. Here is the method: Female CD rats (age, 57 to 70 days; n=3/group; Charles River, St-Constant, Canada) were administered a single bolus intravenous (tail vein) dose of compound 52 (dissolved in 0.85% NaCl) at 15.8 mg/kg of body weight, corresponding to 10 mg/kg of moxifloxacin 3. Animals were sacrificed by CO2 inhalation at the specified time points after i.v. dosing to evaluate the levels of 52 in plasma. Blood samples were collected by cardiac puncture and transferred in BD Vacutainer tubes (green cap) for plasma isolation. The plasma components were obtained by centrifugation of these samples and they were stored at −80° C. until analysis.
For the dosage of prodrug in the plasma, the standards and QCs were prepared (in duplicate) as follows: to 100 μl of blank plasma was added a spiking solution (5 μl) of the prodrug (52 in water). The range of the standards (8 levels) was from 0.06 to 25 μM and the QC levels were 0.18, 1.87 and 18.75 μM. Four samples of blank plasma without prodrug were also prepared. […]
Moxifloxacin 3 resulting from the cleavage of the prodrug was analyzed with the same method on an Agilent 1100™ series LC/MSD Trap, The extracted sample was injected into a Zorbax™ SB-Aq column (2×30 mm, 3.5μ), using 0.1% formic acid in water(aq) and 0.1% formic acid in acetonitrile(org) as the mobile phase, at a flow rate of 0.3 ml/min. […]

In series [4] the test system is Hela cells. The series can be described thus: Cytotoxicity assay (MTS reduction). Format: cell-based. The note with it: concentrations up to 100 μM, 18 h, MTS reagent; data not shown. In a few lines:
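HeLa cells (2×10^4 per well) exposed to compound at 100, 50, 25 and 12.5 μM in DMEM with 1% bovine growth serum, 18 h at 37° C., 5% CO2. Growth inhibition read by MTS tetrazolium reduction.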

On to `COc1c(N2C[C@@H]3CCCN[C@@H]3C2)c(F)cc2c(=O)c(C(=O)OCC(=O)NC(P(=O)(O)O)P(=O)(O)O)cn(C3CC3)c12` [Compound 52, (1,1-Bisphosphonomethylcarbamoyl)methyl 1-cyclopropyl-6-fluoro-1,4-dihydro-7-((4aS,7aS)-octahydropyrrolo[3,4-b]pyridin-6-yl)-8-methoxy-4-oxoquinoline-3-carboxylate], for which the “level of regenerated moxifloxacin 3, uninfected versus infected tibiae” value in series [1] is listed as “not significantly different”. Further, the “Binding to bone (%) LC/MS” value in series [2] came to 94.2 ± 3.2%. Also, the “clearance from the blood circulation of rats, in words” value in series [3] (FIG. 5) is reported as “rapid clearance”. The “half-life of clearance from the circulation” value in series [3] (rat plasma, IV bolus 15.8 mg/kg, 5 min to 24 h) is on record as “less than one hour”.
Turning to `COc1c(N2CCNC(C)C2)c(F)cc2c(=O)c(C(=O)OCC(=O)NC(P(=O)(O)O)P(=O)(O)O)cn(C3CC3)c12` (centres unmarked) [Compound 54, (1,1-Bisphosphonomethylcarbamoyl)methyl 7-(3-methylpiperazin-1-yl)-1-cyclopropyl-6-fluoro-1,4-dihydro-8-methoxy-4-oxoquinoline-3-carboxylate], the cytotoxicity result in series [4] is “no signs of any cytotoxicity”.
